Test results as given in ChEMBL document CHEMBL2074316, “Multidrug resistance protein-mediated transport of chlorambucil and melphalan conjugated to glutathione” (Br J Cancer, 1998).

Target: Multidrug resistance-associated protein 1 (Homo sapiens, UniProt P33527)
Assay: TP_TRANSPORTER: uptake in membrane vesicle from MRP1-expressing HeLa cells
Type: functional, cell membranes

Chain of Multidrug resistance-associated protein 1 (P33527 whole entry): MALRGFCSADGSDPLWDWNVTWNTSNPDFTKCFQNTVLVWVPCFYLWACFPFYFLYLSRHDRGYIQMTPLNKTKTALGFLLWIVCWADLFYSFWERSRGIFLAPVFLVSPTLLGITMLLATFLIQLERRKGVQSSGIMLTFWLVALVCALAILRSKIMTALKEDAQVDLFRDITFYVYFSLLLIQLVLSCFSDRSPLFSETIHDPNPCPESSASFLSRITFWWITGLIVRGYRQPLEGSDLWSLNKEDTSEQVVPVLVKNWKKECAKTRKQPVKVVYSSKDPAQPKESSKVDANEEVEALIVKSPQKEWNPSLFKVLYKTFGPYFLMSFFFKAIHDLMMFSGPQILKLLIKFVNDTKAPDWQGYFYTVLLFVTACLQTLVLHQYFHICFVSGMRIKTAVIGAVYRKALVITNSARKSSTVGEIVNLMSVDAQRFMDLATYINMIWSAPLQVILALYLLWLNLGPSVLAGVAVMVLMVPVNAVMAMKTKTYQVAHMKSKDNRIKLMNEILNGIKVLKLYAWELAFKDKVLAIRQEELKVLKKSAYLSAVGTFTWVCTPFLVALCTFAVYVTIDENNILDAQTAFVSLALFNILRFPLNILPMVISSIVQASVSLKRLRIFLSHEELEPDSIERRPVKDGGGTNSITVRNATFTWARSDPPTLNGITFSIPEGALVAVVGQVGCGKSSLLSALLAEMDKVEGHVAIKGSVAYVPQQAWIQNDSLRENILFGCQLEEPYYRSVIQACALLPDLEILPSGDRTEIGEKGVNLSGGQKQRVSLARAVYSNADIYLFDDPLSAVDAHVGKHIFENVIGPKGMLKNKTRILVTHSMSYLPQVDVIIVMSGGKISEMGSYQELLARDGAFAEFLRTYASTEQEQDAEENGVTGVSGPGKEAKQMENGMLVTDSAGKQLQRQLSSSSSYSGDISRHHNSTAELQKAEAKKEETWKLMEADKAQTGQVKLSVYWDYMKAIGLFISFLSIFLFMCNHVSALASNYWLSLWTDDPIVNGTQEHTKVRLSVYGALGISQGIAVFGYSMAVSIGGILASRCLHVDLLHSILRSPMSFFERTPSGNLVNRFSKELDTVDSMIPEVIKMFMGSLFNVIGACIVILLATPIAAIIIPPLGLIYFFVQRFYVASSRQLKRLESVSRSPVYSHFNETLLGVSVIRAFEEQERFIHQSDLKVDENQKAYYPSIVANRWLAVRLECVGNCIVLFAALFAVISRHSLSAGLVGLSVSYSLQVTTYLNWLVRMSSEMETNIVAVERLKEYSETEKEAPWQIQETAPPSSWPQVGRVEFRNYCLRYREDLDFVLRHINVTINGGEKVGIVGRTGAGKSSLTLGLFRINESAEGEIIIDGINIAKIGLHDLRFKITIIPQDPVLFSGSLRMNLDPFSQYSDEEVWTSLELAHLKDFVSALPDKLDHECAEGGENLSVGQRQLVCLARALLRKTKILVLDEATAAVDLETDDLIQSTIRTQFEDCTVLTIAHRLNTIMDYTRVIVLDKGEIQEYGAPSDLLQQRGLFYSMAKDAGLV

## C=C(NCC(=O)O)[C@H](CSCCN(CCSC[C@H](NC(=O)CC[C@H](N)C(=O)O)C(=O)NCC(=O)O)c1ccc(CCCC(=O)O)cc1)NC(=O)CC[C@H](N)C(=O)O [BISGLUTATHIONYL CHLORAMBUCIL]
  Activity: substrate [+]

## NC(CCC(=O)NC(CSCCN(CCO)c1ccc(CCCC(=O)O)cc1)C(=O)NCC(=O)O)C(=O)O (configuration not stated) [MONOHYDROXY MONOGLUTATHIONYL CHLORAMBUCIL]
  Activity: substrate [+]
